Test results taken from US20260262643A1, “HERBICIDAL BENZOXAZINES” (FMC CORPORATION, priority 2022, published 2026).

What was measured:
barnyardgrass [1] = test: Test C postemergence; format: in vivo, Echinochloa crusgalli; details: 10 days, 0 to 100 scale (0 no effect, 100 complete control)
Procedure, shortened: (§1)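 Soil-applied (pre) and foliar (post, 1–2 leaf, 2–10 cm) sprays; surfactant-containing non-phytotoxic solvent vehicle; loam/sand substrate. Readout: visual % control at 10 d, greenhouse, versus untreated.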

green foxtail [2] = test: Test C preemergence; format: in vivo, Setaria viridis; details: preemergence, 0 to 100 scale (0 no effect, 100 complete control)
Procedure, shortened: as §1

horseweed = test: Test C postemergence; format: in vivo, Erigeron canadensis; details: 10 days, 0 to 100 scale (0 no effect, 100 complete control)
Procedure, shortened: as §1

ragweed = test: Test C postemergence; format: in vivo, Ambrosia artemisiifolia; details: 10 days, 0 to 100 scale (0 no effect, 100 complete control)
Procedure, shortened: as §1

blackgrass [3] = test: Test C postemergence; format: in vivo, Alopecurus myosuroides; details: 10 days, 0 to 100 scale (0 no effect, 100 complete control)
Procedure, shortened: as §1

ryegrass, Italian [4] = test: Test C preemergence; format: in vivo, Lolium multiflorum; details: preemergence, 0 to 100 scale (0 no effect, 100 complete control)
Procedure, shortened: as §1

rice = test: Test D flooded paddy test; format: in vivo, Oryza sativa; details: 250 g ai/ha, applied to paddy water, visual rating after 13 to 14 days, scale 0 to 100 (0 no effect, 100 complete control)
Procedure, shortened: (§2)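 Visual ratings from 0, meaning no effect, to 100, meaning complete control, were assigned against untreated controls 13 to 14 days after compounds were added to the floodwater of pots kept 3 cm deep, with plants at the 2-leaf stage.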

kochia [5] = test: Test C postemergence; format: in vivo, Bassia scoparia; details: 10 days, 0 to 100 scale (0 no effect, 100 complete control)
Procedure, shortened: as §1

sedge, umbrella = test: Test D flooded paddy test; format: in vivo, Cyperus difformis; details: 250 g ai/ha, applied to paddy water, visual rating after 13 to 14 days, scale 0 to 100 (0 no effect, 100 complete control)
Procedure, shortened: as §2

green foxtail [6] = test: Test C postemergence; format: in vivo, Setaria viridis; details: 10 days, 0 to 100 scale (0 no effect, 100 complete control)
Procedure, shortened: as §1

corn [7] = test: Test C postemergence; format: in vivo, Zea mays; details: 10 days, 0 to 100 scale (0 no effect, 100 complete control)
Procedure, shortened: as §1

soybean [8] = test: Test C postemergence; format: in vivo, Glycine max; details: 10 days, 0 to 100 scale (0 no effect, 100 complete control)
Procedure, shortened: as §1

oat, wild [9] = test: Test C preemergence; format: in vivo, Avena fatua; details: preemergence, 0 to 100 scale (0 no effect, 100 complete control)
Procedure, shortened: as §1

galium = test: Test C postemergence; format: in vivo, Galium aparine; details: 10 days, 0 to 100 scale (0 no effect, 100 complete control)
Procedure, shortened: as §1

ryegrass, Italian [10] = test: Test C postemergence; format: in vivo, Lolium multiflorum; details: 10 days, 0 to 100 scale (0 no effect, 100 complete control)
Procedure, shortened: as §1

pigweed, palmer [11] = test: Test C preemergence; format: in vivo, Amaranthus palmeri; details: preemergence, 0 to 100 scale (0 no effect, 100 complete control)
Procedure, shortened: as §1

oat, wild [12] = test: Test C postemergence; format: in vivo, Avena fatua; details: 10 days, 0 to 100 scale (0 no effect, 100 complete control)
Procedure, shortened: as §1

ducksalad = test: Test D flooded paddy test; format: in vivo, Heteranthera limosa; details: 250 g ai/ha, applied to paddy water, visual rating after 13 to 14 days, scale 0 to 100 (0 no effect, 100 complete control)
Procedure, shortened: as §2

soybean [13] = test: Test C preemergence; format: in vivo, Glycine max; details: preemergence, 0 to 100 scale (0 no effect, 100 complete control)
Procedure, shortened: as §1

blackgrass [14] = test: Test C preemergence; format: in vivo, Alopecurus myosuroides; details: preemergence, 0 to 100 scale (0 no effect, 100 complete control)
Procedure, shortened: as §1

pigweed, palmer [15] = test: Test C postemergence; format: in vivo, Amaranthus palmeri; details: 10 days, 0 to 100 scale (0 no effect, 100 complete control)
Procedure, shortened: as §1

wheat [16] = test: Test C preemergence; format: in vivo, Triticum aestivum; details: preemergence, 0 to 100 scale (0 no effect, 100 complete control)
Procedure, shortened: as §1

barnyardgrass [17] = test: Test D flooded paddy test; format: in vivo, Echinochloa crus-galli; details: 250 g ai/ha, applied to paddy water, visual rating after 13 to 14 days, scale 0 to 100 (0 no effect, 100 complete control)
Procedure, shortened: as §2

barnyardgrass [18] = test: Test C preemergence; format: in vivo, Echinochloa crusgalli; details: preemergence, 0 to 100 scale (0 no effect, 100 complete control)
Procedure, shortened: as §1

corn [19] = test: Test C preemergence; format: in vivo, Zea mays; details: preemergence, 0 to 100 scale (0 no effect, 100 complete control)
Procedure, shortened: as §1

kochia [20] = test: Test C preemergence; format: in vivo, Bassia scoparia; details: preemergence, 0 to 100 scale (0 no effect, 100 complete control)
Procedure, shortened: as §1

wheat [21] = test: Test C postemergence; format: in vivo, Triticum aestivum; details: 10 days, 0 to 100 scale (0 no effect, 100 complete control)
Procedure, shortened: as §1

Cc1cccc2c1OC(C(F)(F)F)CN2C(=O)c1cccc(-n2cnc(C(C)C)n2)c1 (single isomer, unassigned) [Compound 302]
Plant response rating, Barnyardgrass (barnyardgrass [1]; 500 g ai/ha, postemergence): 10
Plant response rating, Barnyardgrass (barnyardgrass [1]; Postemergence, 125 g ai/ha): 10
Foxtail, Green plant response rating (green foxtail [2]; 500 g ai/ha): 80
Foxtail, Green plant response rating (green foxtail [2]; Test C, 125 g ai/ha): 20
Plant response rating, Horseweed (horseweed; 500 g ai/ha, postemergence): 50
Plant response rating, Horseweed (horseweed; Postemergence, 125 g ai/ha): 60
Plant response rating, Ragweed (ragweed; 500 g ai/ha, postemergence): 20
Plant response rating, Ragweed (ragweed; Postemergence, 125 g ai/ha): 20
Plant response rating, Blackgrass (blackgrass [3]; 500 g ai/ha, postemergence): 30
Plant response rating, Blackgrass (blackgrass [3]; Postemergence, 125 g ai/ha): 0
Ryegrass, Italian plant response rating (ryegrass, Italian [4]; 500 g ai/ha): 100
Ryegrass, Italian plant response rating (ryegrass, Italian [4]; Test C, 125 g ai/ha): 80
Plant response rating, Rice (Flood) (rice): 0
Plant response rating, Kochia (kochia [5]; 500 g ai/ha, postemergence): 70
Plant response rating, Kochia (kochia [5]; Postemergence, 125 g ai/ha): 20
Plant response rating, Sedge, Umbrella (Flood) (sedge, umbrella): 0
Plant response rating, Foxtail, Green (green foxtail [6]; 500 g ai/ha, postemergence): 10
Plant response rating, Foxtail, Green (green foxtail [6]; Postemergence, 125 g ai/ha): 0
Plant response rating, Corn (corn [7]; 500 g ai/ha, postemergence): 10
Plant response rating, Corn (corn [7]; Postemergence, 125 g ai/ha): 10
Plant response rating, Soybean (soybean [8]; 500 g ai/ha, postemergence): 90
Plant response rating, Soybean (soybean [8]; Postemergence, 125 g ai/ha): 80
Oat, Wild plant response rating (oat, wild [9]; 500 g ai/ha): 80
Oat, Wild plant response rating (oat, wild [9]; Test C, 125 g ai/ha): 0
Plant response rating, Galium (galium; 500 g ai/ha, postemergence): 90
Plant response rating, Ryegrass, Italian (ryegrass, Italian [10]; 500 g ai/ha, postemergence): 50
Plant response rating, Ryegrass, Italian (ryegrass, Italian [10]; Postemergence, 125 g ai/ha): 0
Pigweed, Palmer plant response rating (pigweed, palmer [11]; 500 g ai/ha): 80
Pigweed, Palmer plant response rating (pigweed, palmer [11]; Test C, 125 g ai/ha): 70
Plant response rating, Oat, Wild (oat, wild [12]; 500 g ai/ha, postemergence): 10
Plant response rating, Oat, Wild (oat, wild [12]; Postemergence, 125 g ai/ha): 0
Plant response rating, Ducksalad (Flood) (ducksalad): 0
Soybean plant response rating (soybean [13]; 500 g ai/ha): 20
Soybean plant response rating (soybean [13]; Test C, 125 g ai/ha): 10
Blackgrass plant response rating (blackgrass [14]; 500 g ai/ha): 60
Blackgrass plant response rating (blackgrass [14]; Test C, 125 g ai/ha): 30
Plant response rating, Pigweed, Palmer (pigweed, palmer [15]; 500 g ai/ha, postemergence): 20
Plant response rating, Pigweed, Palmer (pigweed, palmer [15]; Postemergence, 125 g ai/ha): 10
Wheat plant response rating (wheat [16]; 500 g ai/ha): 40
Wheat plant response rating (wheat [16]; Test C, 125 g ai/ha): 20
Plant response rating, Barnyardgrass (Flood) (barnyardgrass [17]): 0
Barnyardgrass plant response rating (barnyardgrass [18]; 500 g ai/ha): 50
Barnyardgrass plant response rating (barnyardgrass [18]; Test C, 125 g ai/ha): 0
Corn plant response rating (corn [19]; 500 g ai/ha): 0
Kochia plant response rating (kochia [20]; 500 g ai/ha): 80
Kochia plant response rating (kochia [20]; Test C, 125 g ai/ha): 0
Plant response rating, Wheat (wheat [21]; 500 g ai/ha, postemergence): 10
Plant response rating, Wheat (wheat [21]; Postemergence, 125 g ai/ha): 10

CCOc1ncn(-c2cccc(C(=O)N3C[C@H](C)Oc4c(Cl)cccc43)c2)n1 [Compound 311]
Plant response rating, Barnyardgrass (barnyardgrass [1]; 500 g ai/ha, postemergence): 40
Plant response rating, Barnyardgrass (barnyardgrass [1]; Postemergence, 125 g ai/ha): 10
Foxtail, Green plant response rating (green foxtail [2]; 500 g ai/ha): 100
Foxtail, Green plant response rating (green foxtail [2]; Test C, 125 g ai/ha): 90
Plant response rating, Horseweed (horseweed; 500 g ai/ha, postemergence): 50
Plant response rating, Horseweed (horseweed; Postemergence, 125 g ai/ha): 50
Plant response rating, Ragweed (ragweed; 500 g ai/ha, postemergence): 40
Plant response rating, Ragweed (ragweed; Postemergence, 125 g ai/ha): 0
Plant response rating, Blackgrass (blackgrass [3]; 500 g ai/ha, postemergence): 90
Plant response rating, Blackgrass (blackgrass [3]; Postemergence, 125 g ai/ha): 0
Ryegrass, Italian plant response rating (ryegrass, Italian [4]; 500 g ai/ha): 80
Ryegrass, Italian plant response rating (ryegrass, Italian [4]; Test C, 125 g ai/ha): 30
Plant response rating, Rice (Flood) (rice): 0
Plant response rating, Kochia (kochia [5]; 500 g ai/ha, postemergence): 70
Plant response rating, Kochia (kochia [5]; Postemergence, 125 g ai/ha): 30
Plant response rating, Sedge, Umbrella (Flood) (sedge, umbrella): 0
Plant response rating, Foxtail, Green (green foxtail [6]; 500 g ai/ha, postemergence): 40
Plant response rating, Foxtail, Green (green foxtail [6]; Postemergence, 125 g ai/ha): 30
Plant response rating, Corn (corn [7]; 500 g ai/ha, postemergence): 40
Plant response rating, Corn (corn [7]; Postemergence, 125 g ai/ha): 10
Plant response rating, Soybean (soybean [8]; 500 g ai/ha, postemergence): 100
Plant response rating, Soybean (soybean [8]; Postemergence, 125 g ai/ha): 70
Oat, Wild plant response rating (oat, wild [9]; 500 g ai/ha): 30
Oat, Wild plant response rating (oat, wild [9]; Test C, 125 g ai/ha): 0
Plant response rating, Galium (galium; 500 g ai/ha, postemergence): 90
Plant response rating, Galium (galium; Postemergence, 125 g ai/ha): 90
Plant response rating, Ryegrass, Italian (ryegrass, Italian [10]; 500 g ai/ha, postemergence): 30
Plant response rating, Ryegrass, Italian (ryegrass, Italian [10]; Postemergence, 125 g ai/ha): 10
Pigweed, Palmer plant response rating (pigweed, palmer [11]; 500 g ai/ha): 100
Pigweed, Palmer plant response rating (pigweed, palmer [11]; Test C, 125 g ai/ha): 50
Plant response rating, Oat, Wild (oat, wild [12]; 500 g ai/ha, postemergence): 10
Plant response rating, Oat, Wild (oat, wild [12]; Postemergence, 125 g ai/ha): 0
Plant response rating, Ducksalad (Flood) (ducksalad): 0
Soybean plant response rating (soybean [13]; 500 g ai/ha): 10
Soybean plant response rating (soybean [13]; Test C, 125 g ai/ha): 0
Blackgrass plant response rating (blackgrass [14]; 500 g ai/ha): 80
Blackgrass plant response rating (blackgrass [14]; Test C, 125 g ai/ha): 10
Plant response rating, Pigweed, Palmer (pigweed, palmer [15]; 500 g ai/ha, postemergence): 60
Plant response rating, Pigweed, Palmer (pigweed, palmer [15]; Postemergence, 125 g ai/ha): 20
Wheat plant response rating (wheat [16]; 500 g ai/ha): 20
Wheat plant response rating (wheat [16]; Test C, 125 g ai/ha): 0
Plant response rating, Barnyardgrass (Flood) (barnyardgrass [17]): 0
Barnyardgrass plant response rating (barnyardgrass [18]; 500 g ai/ha): 60
Barnyardgrass plant response rating (barnyardgrass [18]; Test C, 125 g ai/ha): 0
Corn plant response rating (corn [19]; 500 g ai/ha): 0
Corn plant response rating (corn [19]; Test C, 125 g ai/ha): 0
Kochia plant response rating (kochia [20]; 500 g ai/ha): 80
Kochia plant response rating (kochia [20]; Test C, 125 g ai/ha): 20
Plant response rating, Wheat (wheat [21]; 500 g ai/ha, postemergence): 10
Plant response rating, Wheat (wheat [21]; Postemergence, 125 g ai/ha): 10
